Reference: patent US10245264B2, “Substituted imidazo[1,2-a]pyrazines as soluble guanylate cyclase activators” (Merck Sharp & Dohme Corp., priority 2015, dated 2019)

Target: T1, sGC α1/β1 heterodimer stably expressed in CHO-K1 cells (CHO-K1/sGC) (Homo sapiens, UniProt Q02108+Q02153)
T1 construct: expressed in transfected cells
T1 sequence (Q02108 1-690): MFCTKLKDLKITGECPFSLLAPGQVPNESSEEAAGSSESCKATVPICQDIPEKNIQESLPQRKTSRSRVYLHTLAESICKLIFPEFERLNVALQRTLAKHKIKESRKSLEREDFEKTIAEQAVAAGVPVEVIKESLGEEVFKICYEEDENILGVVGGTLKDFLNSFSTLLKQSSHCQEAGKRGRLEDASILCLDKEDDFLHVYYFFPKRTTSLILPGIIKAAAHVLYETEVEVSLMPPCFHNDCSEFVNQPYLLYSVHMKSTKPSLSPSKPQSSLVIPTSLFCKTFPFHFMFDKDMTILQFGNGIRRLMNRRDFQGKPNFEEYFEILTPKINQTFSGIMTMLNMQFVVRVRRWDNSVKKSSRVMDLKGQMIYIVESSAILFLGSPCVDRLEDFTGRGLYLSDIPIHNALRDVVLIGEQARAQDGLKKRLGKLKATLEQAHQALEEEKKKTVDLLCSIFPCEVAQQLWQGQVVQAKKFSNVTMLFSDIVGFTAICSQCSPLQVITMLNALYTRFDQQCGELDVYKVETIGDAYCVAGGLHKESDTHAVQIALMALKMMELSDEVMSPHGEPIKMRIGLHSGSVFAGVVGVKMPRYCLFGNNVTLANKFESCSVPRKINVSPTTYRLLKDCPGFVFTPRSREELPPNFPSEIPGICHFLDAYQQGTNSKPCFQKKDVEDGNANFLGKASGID
T1 sequence (Q02153 1-619): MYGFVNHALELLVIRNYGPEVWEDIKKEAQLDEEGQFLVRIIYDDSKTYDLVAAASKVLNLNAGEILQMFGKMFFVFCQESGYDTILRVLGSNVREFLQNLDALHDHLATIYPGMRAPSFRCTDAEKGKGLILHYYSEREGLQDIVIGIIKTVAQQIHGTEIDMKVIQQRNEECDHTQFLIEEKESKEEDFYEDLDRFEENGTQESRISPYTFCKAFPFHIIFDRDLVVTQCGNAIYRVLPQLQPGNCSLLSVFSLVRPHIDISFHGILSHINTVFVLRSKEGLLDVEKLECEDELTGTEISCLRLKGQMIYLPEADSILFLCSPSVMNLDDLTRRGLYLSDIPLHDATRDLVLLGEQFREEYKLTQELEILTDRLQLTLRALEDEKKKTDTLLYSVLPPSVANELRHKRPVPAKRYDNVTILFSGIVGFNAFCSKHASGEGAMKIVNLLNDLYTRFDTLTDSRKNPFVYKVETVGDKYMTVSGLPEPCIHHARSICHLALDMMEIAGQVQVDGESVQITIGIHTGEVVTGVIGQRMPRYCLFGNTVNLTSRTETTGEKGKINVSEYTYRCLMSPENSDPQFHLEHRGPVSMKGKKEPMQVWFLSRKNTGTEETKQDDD
Assay: Cell-based sGC functional assay (CASA assay), cGMP generation by HTRF
Settings: for Emax: CHO-K1, maximum cGMP production of Compound A set to 100% activation, read-out: % Act. (percent activation relative to Compound A); for EC50: CHO-K1/sGC cells, 1 hr at 37° C., 4P fit, presence or absence of DETA-NO not given, read-out: IP (nM) (inflection point)
From the text: Biological Assay 1: Cell-Based sGC Functional Assay (CASA Assay) Rationale
sGC is a heme-containing enzyme that converts GTP to secondary messenger cGMP. Increases in cGMP levels affect several physiological processes including vasorelaxation through multiple downstream pathways. […] Heme-dependent activators (HDAs) preferentially activate sGC containing a ferrous heme group. To determine the effect of sGC activators on enzyme activity, the CASA assay was developed to monitor the generation of cGMP in a cell line that stably expresses the heterodimeric sGC protein.
A CHO-K1 cell line stably expressing the sGC α1/β1 heterodimer was generated using a standard transfection protocol. CHO-K1 cells were transfected with plasmids pIREShyghsGCα1 and pIRESneo-hsGCβ1 simultaneously using FUGENE reagent. Clones that stably express both subunits were selected with hygromycin and neomycin for ˜2 weeks. Clone #7 was chosen for the assay and was designated CHO-K1/sGC. CHO-K1/sGC cells were maintained in F-K12 medium containing 10% heat-inactivated Fetal Bovine Serum (FBS), 100 μg/mL penicillin/streptomycin, 0.5 mg/mL hygromycin and 0.25 mg/mL G418. The cells were then cryopreserved in LN2. On the day of the assay, cells were thawed and resuspended in EBSS Assay Buffer (Sigma, E3024) supplemented with 5 mM MgCl2, 10 mM HEPES (4-(2-hydroxyethyl)piperazine-1-ethanesulfonic acid) and 0.05% BSA (bovine serum albumin) (EAB) and cell density was then adjusted to 4×10^5/mL with EAB. IBMX (3-isobutyl-1-methylxanthin, 0.5 mM) was added to inhibit degradation of cGMP. Compounds were diluted from DMSO stock solutions and added to the assay at a final DMSO concentration of 2.5%. Cells were incubated with compounds in the presence and absence of 1 μM of Diethylenetriamine/nitric oxide adduct (DETA-NO; Sigma, 17018) for 1 hr at 37° C. At the end of the incubation period, the reaction was terminated and the cells were lysed with the detection reagents from Cisbio Kits. The level of intracellular cGMP was determined using an HTRF-based assay kit (CisBio, 62GM2PEC), which detects the displacement of a fluorescence labeled cGMP from its specific antibody. The cGMP produced by test compounds was directly compared to the maximum cGMP production (this value was set to equal 100% activation.) of the published sGC-HDA Compound A:
[drawing 101] (Example 1 in WO 2010/065275, published Jun. 10, 2010). The test compounds' activities were then expressed as a percentage of Compound A, the standard in every experiment. This percent activation was calculated either in the presence or absence of DETA-NO which was then plotted. IP and maximum fold induction was derived using ADA analysis software for 4P fit.
The compounds in the Examples of the instant invention had inflection points (IP) less than or equal to 10 μM and many had IPs less than or equal to about 1 μM.

| Structure (SMILES) | Emax [%] | EC50 [nM] | % Act. (percent activation relative to Compound A) (maximum cGMP production of Compound A set to 100% activation) [%] |
| --- | --- | --- | --- |
| CC1(c2ccc(Cl)cc2)C(=O)Nc2nc(-c3cn4ccnc4c(NCC4CCCOC4)n3)nc(N)c21 (single isomer, unassigned; fast eluting) [Example 72A, 4-amino-5-(4-chlorophenyl)-5-methyl-2-{8-[(tetrahydro-2H-pyran-3-ylmethyl)amino]imidazo [1,2-a]pyrazin-6-yl}-5,7-dihydro-6H-pyrrolo[2,3-d] pyrimidin-6-one (fast eluting)] | 96 | 1080 | – |
| CC1(c2ccc(F)cc2)C(=O)Nc2nc(-c3cn4ccnc4c(OC4CCCCC4)n3)nc(N)c21 (stereo not drawn) [Example 22A, 4-amino-2-[8-(cyclohexyloxy)imidazo[1,2-a]pyrazin-6-yl]-5-(4-fluorophenyl)-5-methyl-5,7-dihydro-6H-pyrrolo[2,3-d] pyrimidin-6-one] | 107 | 171 | – |
| CC1(c2ccc(F)cc2)C(=O)Nc2nc(-c3cn4cc(C(F)(F)F)nc4c(Oc4cccc(F)c4)n3)nc(N)c21 (stereo not drawn) [Example 35A, 4-Amino-2-(8-(3-fluorophenoxy)-2-(trifluoromethyl)imidazo[1,2-a]pyrazin-6-yl)-5-(4-fluorophenyl)-5-methyl-5H-pyrrolo[2,3-d]pyrimidin-6(7H)-one] | 94 | 468 | – |
| CC1(c2ccc(F)cc2)C(=O)Nc2nc(-c3cn4ccnc4c(OCC4CC(F)(F)C4)n3)nc(N)c21 (stereo not drawn) [Example 31A, 4-amino-2-{8-[(3,3-difluoro-cyclobutyl)methoxy]imidazo [1,2-a]pyrazin-6-yl}-5-(4-fluoro-phenyl)-5-methyl-5,7-dihydro-6H-pyrrolo[2,3-d] pyrimidin-6-one] | 98 | 145 | – |
| CC1(c2ccc(F)cn2)C(=O)Nc2nc(-c3cn4ccnc4c(OCC4CC(F)(F)C4)n3)nc(N)c21 (stereo not drawn) [Example 33B, 4-amino-2-{8-[(3,3-difluoro-cyclobutyl)methoxy]imidazo [1,2-a]pyrazin-6-yl}-5-(5-fluoro-pyridin-2-yl)-5-methyl-5,7-dihydro-6H-pyrrolo[2,3-d] pyrimidin-6-one] | 112 | 1040 | – |
| CC1(c2ccc(Cl)cc2)C(=O)Nc2nc(-c3cn4ccnc4c(NCC4CCCCO4)n3)nc(N)c21 (single isomer, unassigned; fast eluting) [Example 71A, 4-amino-5-(4-chlorophenyl)-5-methyl-2-{8-[(tetrahydro-2H-pyran-2-ylmethyl)amino]imidazo [1,2-a]pyrazin-6-yl}-5,7-dihydro-6H-pyrrolo[2,3-d] pyrimidin-6-one (fast eluting)] | 96 | 175 | – |
| Nc1nc(-c2cn3ccnc3c(OCC(F)(F)C(F)(F)F)n2)nc2c1C(c1ccc(F)cc1)(C1CC1)C(=O)N2 (stereo not drawn) [Example 14B, 4-amino-5-cyclopropyl-5-(4-fluorophenyl)-2-[8-(2,2,3,3,3-pentafluoropropoxy)imidazo[1,2-a]pyrazin-6-yl]-5,7-dihydro-6H-pyrrolo [2,3-d]pyrimidin-6-one] | 96 | 534 | – |
| CC1(c2ccc(Cl)cc2)C(=O)Nc2nc(-c3cn4ccnc4c(NCC4CCCOC4)n3)nc(N)c21 (single isomer, unassigned; slow eluting) [Example 72B, 4-amino-5-(4-chlorophenyl)-5-methyl-2-{8-[(tetrahydro-2H-pyran-3-ylmethyl)amino]imidazo [1,2-a]pyrazin-6-yl}-5,7-dihydro-6H-pyrrolo[2,3-d] pyrimidin-6-one (slow eluting)] | – | 412 | 94 |
| CC1(c2ccc(F)cc2)C(=O)Nc2nc(-c3cn4ccnc4c(NCC4CC(F)(F)C4)n3)nc(N)c21 (stereo not drawn) [Example 53A, 4-amino-2-(8-{[(3,3-difluoro-cyclobutyl)methyl]amino}imidazo[1,2-a]pyrazin-6-yl)-5-(4-fluoro-phenyl)-5-methyl-5,7-dihydro-6H-pyrrolo[2,3-d] pyrimidin-6-one] | 110 | 948 | – |

The next molecules have a lower EC50 than those just listed; values first:

| Emax [%] | EC50 [nM] | % Act. (percent activation relative to Compound A) (maximum cGMP production of Compound A set to 100% activation) [%] | Structure (SMILES) |
| --- | --- | --- | --- |
| 109 | 74 | – | CC1(c2ccc(F)cc2)C(=O)Nc2nc(-c3cn4ccnc4c(Oc4ccc(F)cc4F)n3)nc(N)c21 (stereo not drawn) [Example 19A, 4-amino-2-[8-(2,4-difluorophenoxy)imidazo[1,2-a]pyrazin-6-yl]-5-(4-fluorophenyl)-5-methyl-5,7-dihydro-6H-pyrrolo[2,3-d] pyrimidin-6-one] |
| 110 | 13 | – | CC1(c2ccc(F)cc2)C(=O)Nc2nc(-c3cn4ccnc4c(OCC4CCCC4)n3)nc(N)c21 (stereo not drawn) [Example 45A, 4-amino-2-[8-(cyclopentyl-methoxy)imidazo [1,2-a]pyrazin-6-yl]-5-(4-fluoro-phenyl)-5-methyl-5,7-dihydro-6H-pyrrolo[2,3-d] pyrimidin-6-one] |
| 124 | 28 | – | CC1(c2ccc(F)cc2)C(=O)Nc2nc(-c3cn4ccnc4c(Oc4ccccc4)n3)nc(N)c21 (stereo not drawn) [Example 9A, 4-amino-5-(4-fluorophenyl)-5-methyl-2-(8-phenoxyimidazo [1,2-a]pyrazin-6-yl)-5,7-dihydro-6H-pyrrolo[2,3-d] pyrimidin-6-one] |
| 72 | 7 | – | CC1(c2ccc(Cl)cc2)C(=O)Nc2nc(-c3cn4ccnc4c(NCc4ccccc4)n3)nc(N)c21 (stereo not drawn) [Example 60A, 4-amino-2-[8-(benzylamino)imidazo[1,2-a]pyrazin-6-yl]-5-(4-chloro-phenyl)-5-methyl-5,7-dihydro-6H-pyrrolo[2,3-d] pyrimidin-6-one] |
| 89 | 37 | – | CC1(c2ccc(F)cc2)C(=O)Nc2nc(-c3cn4ccnc4c(Oc4ccc(F)c(F)c4F)n3)nc(N)c21 (stereo not drawn) [Example 16A, 4-amino-5-(4-fluorophenyl)-5-methyl-2-[8-(2,3,4-trifluorophenoxy)imidazo[1,2-a]pyrazin-6-yl]-5,7-dihydro-6H-pyrrolo [2,3-d]pyrimidin-6-one] |
| 92 | 35 | – | CC1(c2ccc(F)cc2)C(=O)Nc2nc(-c3cn4ccnc4c(NCC4CCCCC4)n3)nc(N)c21 (stereo not drawn) [Example 55A, 4-amino-2-{8-[(cyclohexyl-methyl)amino]imidazo[1,2-a]pyrazin-6-yl}-5-(4-fluoro-phenyl)-5-methyl-5,7-dihydro-6H-pyrrolo[2,3-d] pyrimidin-6-one] |
